What all share (format): in vivo
For one experiment, the system named is Nilaparvata lugens. Description: Nilaparvata lugens spray test. The settings on record: 96 h, rice plants, after 4 days; for mortality at 500 g/ha: application rate 500 g/ha; for mortality at 100 g/ha: application rate 100 g/ha. The protocol:
Nilaparvata lugens—Spray Test Solvent: 78.0 parts by weight of acetone • • 1.5 parts by weight of dimethylformamide Emulsifier: alkylarylpolyglycol ether
(§1) To produce a suitable preparation of active compound, 1 part by weight of active compound is mixed with the stated amount of solvents and is diluted with water, containing an emulsifier concentration of 1000 ppm, to the desired concentration. Further test concentrations are prepared by dilution with emulsifier containing water.
Rice plants (Oryza sativa) are sprayed with a preparation of the active ingredient of the desired concentration and the plants are infested with the brown planthopper (Nilaparvata lugens).
After 4 days mortality in % is determined. 100% means all planthoppers have been killed and 0% means none of the planthoppers have been killed.

The test system of a further experiment is Tetranychus urticae. Description: Tetranychus urticae spray test, OP-resistant. Particulars: foliar, 144 h, application rate 100 g/ha, French bean leaf disks, after 6 days. The protocol:
Tetranychus urticae—Spray Test OP-Resistant Solvent: 78.0 parts by weight acetone • 1.5 parts by weight dimethylformamide Emulsifier: alkylarylpolyglycol ether
as §1
French bean (Phaseolus vulgaris) leaf disks infected with all instars of the two spotted spidermite (Tetranychus urticae), are sprayed with a preparation of the active ingredient of the desired concentration.
After 6 days mortality in % is determined. 100% means all spider mites have been killed and 0% means none of the spider mites have been killed.

The subject of experiment [1] is Blattella germanica strain PAULINIA
Description: Blattella germanica test (BLTTGE surface treatment & contact assay). The settings on record: exposure 30 minutes, 24 hours after contact, read-out: efficacy (mortality); for mortality at 20 mg/m2: surface concentration 20 mg/m^2, glazed tile; for mortality at 4 mg/m2: surface concentration 4 mg/m^2, glazed tile. The protocol:
Blattella germanica Test (BLTTGE Surface Treatment & Contact Assay) Solvent: Aceton+2000 ppm rapeseed oil methyl ester (RME)
In order to produce a sufficient, active ingredient containing solution it is necessary to solve the test compound in the solvent-mix (acetone at 2 mg/ml/RME 2000 ppm). This solution is pipetted onto a glazed tile and after evaporation of the acetone, adult animals of the species Blattella germanica strain […] are placed onto the dried surface. The exposure time is 30 minutes. Mortality in percent (%) is determined 24 hours after contact of the insects to the treated surface. 100% mortality means that all tested insects are dead, whereas 0% means that no insect died.

The structures appear in SMILES notation.

Take `C[C@H](NC(=O)c1ccnc(C(F)(F)F)n1)c1ncnn1-c1ccc(C#N)cn1` [II-8]: in the experiment with Nilaparvata lugens, the mortality at 500 g/ha turned out to be 100%. Turning to `C[C@H](NC(=O)c1cc(Cl)cc(C(F)F)c1)c1ncnn1-c1ccc(C#N)cn1` [II-12], in the experiment with Tetranychus urticae, the mortality at 100 g/ha stood at 90%.

As for `C[C@H](NC(=O)c1cc(C(F)(F)F)cc(C(F)(F)F)c1)c1ncnn1-c1ccc(C(=O)N(C)C2CC2)cn1` [II-38, 6-(5-{(1S)-1-[3,5-bis(trifluoromethyl)benzamido]ethyl}-1H-1,2,4-triazol-1-yl)-N-cyclopropyl-N-methylnicotinamide], the mortality at 100 g/ha in the experiment on Tetranychus urticae is 90%. In the experiment with Nilaparvata lugens, `C[C@H](NC(=O)c1cc(Cl)cc(C(F)(F)F)c1)c1ncnn1-c1cc(-n2cncn2)ccn1` [II-43] yielded a mortality at 500 g/ha of 90%.

The compound `C[C@H](NC(=O)c1cc(C(F)(F)F)cc(C(F)(F)F)c1)c1ncnn1-c1ccc(C(=O)N(C)CC2CC2)cn1` [II-73] came in with a mortality at 500 g/ha in the experiment with Nilaparvata lugens of 100%.

For `C[C@H](NC(=O)c1cc(OC(F)F)cc(OC(F)F)c1)c1ncnn1-c1ccc(C#N)cn1` [II-77], the mortality at 20 mg/m2 in experiment [1] was in the range of 80 to 100%. Same read-out and setting: the result for `C[C@H](NC(=O)c1cc(Br)cc(C(F)F)c1)c1ncnn1-c1ccc(C#N)cn1` [II-83] reads 80 to 100%. In the case of `Cc1nc([C@H](C)NC(=O)c2cc(C(F)(F)F)cc(C(F)(F)F)c2)n(-c2ccc(C(=O)N(C)C3CC3)cn2)n1` [II-96], in the experiment with Nilaparvata lugens, the mortality at 100 g/ha was determined as 90%. For the compound `Cc1nc([C@H](C)NC(=O)c2cc(C(F)(F)F)cc(C(F)(F)F)c2)n(-c2ccc(C(=O)N(C)CC#N)cn2)n1` [II-99], the mortality at 100 g/ha in the experiment with Nilaparvata lugens and in the experiment on Tetranychus urticae was 90% each time.

Consider `C[C@H](NC(=O)c1cc(C(F)F)cc(C(F)F)c1)c1ncnn1-c1ccc(C#N)cn1` [II-101], for which the mortality at 20 mg/m2 in experiment [1] is 80 to 100%. In the case of `C[C@H](NC(=O)c1cc(OC(F)(F)F)cc(C(F)F)c1)c1ncnn1-c1ccc(C#N)cn1` [II-111], in experiment [1], the mortality at 4 mg/m2 was 80 to 100% and the mortality at 20 mg/m2 fell in the range of 80 to 100%. With `C[C@H](NC(=O)c1cc(OC(F)F)cc(C(F)F)c1)c1ncnn1-c1ccc(C#N)cn1` [II-116], in experiment [1], the mortality at 4 mg/m2 is 80 to 100% and the mortality at 20 mg/m2 was 80 to 100%.

As a reminder, the mortality is the percentage killed.
